Data taken from patent US5763405A, “Stabilized composition for oral administration of peptides” (Ferring B.V., priority 1994, dated 1998).

Settings: pH 6.5
Description: A tube was introduced intranasally after local anaesthesia with xylocaine, and gastric juice was collected. Thereafter one standardized meal was given 1 h before sampling of duodenal and distal jejunum juice and another the next morning before the collection of distal ileal juice. After centrifugation the gastric and intestinal juices were frozen in aliquots of 1 ml and stored at -20° C. Degradation method. The peptide or peptide analog (10 μl of 10 mM peptide in 0.9% aqueous NaCl) was added to 190 μl of undiluted juice at 370° C. Aliquots of 25 μl were withdrawn at intervals and mixed with 100 μl acetone to stop the reaction. After centrifugation for 10 min at 10,000 g, 10 μl of the supernatiant was analyzed by reversed phase HPLC. Determination of peptide degradation. Analysis was carried out in a Varian 5000 HPLC analyzer equipped with a UV-detector (220 nm). Column Bondapak TM C18 (3.9×300 mm), eluant MeOH/0.025M NH4 Ac (isocratic conditions), flow rate 1 ml/min. Protein and pH determination. Protein: Bio-Rad protein assay. pH: Orion model SA720; pH-paper Merck (Darmstadt), range 4.0-7.0.

## NC(=O)CC[C@@H]1NC(=O)[C@H](Cc2ccccc2)NC(=O)[C@H](Cc2ccc(O)cc2)NC(=O)CCSSC[C@@H](C(=O)N2CCC[C@H]2C(=O)N[C@H](CCCN=C(N)N)C(=O)NCC(N)=O)NC(=O)[C@H](CC(N)=O)NC1=O [DDAVP, Mpa--Tyr--Phe--Gln--Asn--Cys--Pro--D--Arg--Gly--GlyNH2 (SEQ ID NO: 3)]
  DDAVP degraded (to about 50%): about 50%
